Results on twelve molecules are retold here after ChEMBL document CHEMBL1759905, “Nonsteroidal 2,3-dihydroquinoline glucocorticoid receptor agonists with reduced PEPCK activation” (Bioorg Med Chem Lett, 2011).

Test [1] has as its target T1, Glucocorticoid receptor (Homo sapiens) (UniProt P04150).
T1 sequence (whole entry): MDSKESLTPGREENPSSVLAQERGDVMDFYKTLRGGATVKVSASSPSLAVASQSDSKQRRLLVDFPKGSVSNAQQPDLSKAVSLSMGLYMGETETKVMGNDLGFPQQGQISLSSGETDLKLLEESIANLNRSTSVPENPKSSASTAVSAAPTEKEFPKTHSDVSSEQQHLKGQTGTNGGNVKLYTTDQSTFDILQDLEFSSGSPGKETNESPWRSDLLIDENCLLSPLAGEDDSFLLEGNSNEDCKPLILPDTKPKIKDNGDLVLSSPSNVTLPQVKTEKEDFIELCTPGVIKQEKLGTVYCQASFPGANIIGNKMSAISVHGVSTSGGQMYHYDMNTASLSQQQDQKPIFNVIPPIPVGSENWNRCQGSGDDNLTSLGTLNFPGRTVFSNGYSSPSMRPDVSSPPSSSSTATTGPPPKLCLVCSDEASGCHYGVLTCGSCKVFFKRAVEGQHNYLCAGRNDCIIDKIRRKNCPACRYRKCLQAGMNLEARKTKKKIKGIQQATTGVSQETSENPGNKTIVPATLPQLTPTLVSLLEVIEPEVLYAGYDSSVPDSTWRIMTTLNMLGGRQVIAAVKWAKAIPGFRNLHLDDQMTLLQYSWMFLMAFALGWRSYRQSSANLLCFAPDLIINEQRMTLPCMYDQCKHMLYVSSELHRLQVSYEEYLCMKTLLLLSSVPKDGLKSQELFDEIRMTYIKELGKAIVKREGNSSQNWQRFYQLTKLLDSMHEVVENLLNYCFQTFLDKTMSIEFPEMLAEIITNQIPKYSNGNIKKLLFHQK
Description: Agonist activity at glucocorticoid receptor in human HepG2 cells co-transfected with GRE assessed as GRE activation by luciferase reporter gene assay relative to Dexamethasone. It counts as functional, cell-based. Details: concentration or dose not given beside the values.

The target in test [2] is T2, Glucocorticoid receptor (Homo sapiens, UniProt P04150).
T2 sequence (P04150 whole entry): T1 sequence (whole entry)
Description: Displacement of radiolabeled Dexamethasone from glucocorticoid receptor expressed in baculovirus.

Test [3] addresses T2, Glucocorticoid receptor. Kind of test: Transrepression activity at glucocorticoid receptor in human HepG2 cells assessed as inhibition of TNFalpha/IL1beta-stimulated NFkappaB-dependent E-selectin repression by luciferase reporter gene assay. The class given is cell-based.
In test [4] the target is T1, Glucocorticoid receptor (Homo sapiens). Kind of test: Transrepression activity at glucocorticoid receptor in human HepG2 cells assessed as inhibition of TNFalpha/IL1beta-stimulated NFkappaB-dependent E-selectin repression by luciferase reporter gene assay relative to Dexamethasone. Also noted: scale not given: the % may be the effect or the level left. It counts as cell-based. Background: A reporter such as luciferase makes a cellular process visible.

The target in test [5] is T2, Glucocorticoid receptor. Kind of test: Transrepression activity at glucocorticoid receptor in human NHDF cells assessed as inhibition of IL-1beta-stimulated AP1 dependent IL-6 repression by ELISA. The class given is cell-based.
In test [6] the target is T1, Glucocorticoid receptor (Homo sapiens). Description: Transrepression activity at glucocorticoid receptor in human NHDF cells assessed as inhibition of IL-1beta-stimulated AP1 dependent IL-6 repression by ELISA relative to Dexamethasone. It counts as cell-based. Also noted: concentration or dose not given beside the values. Background: ELISA stands for enzyme-linked immunosorbent assay.

In test [7] the target is T2, Glucocorticoid receptor. Kind of test: Agonist activity at glucocorticoid receptor in human HepG2 cells co-transfected with PEPCK assessed as GRE activation by luciferase reporter gene assay. It counts as functional, cell-based.
Test [8] has as its target T1, Glucocorticoid receptor (Homo sapiens). Description: Agonist activity at glucocorticoid receptor in human HepG2 cells co-transfected with PEPCK assessed as GRE activation by luciferase reporter gene assay relative to Dexamethasone. It counts as functional, cell-based.
The target in the next test is T3, Progesterone receptor (Homo sapiens, UniProt P06401).
T3 sequence (P06401 whole entry): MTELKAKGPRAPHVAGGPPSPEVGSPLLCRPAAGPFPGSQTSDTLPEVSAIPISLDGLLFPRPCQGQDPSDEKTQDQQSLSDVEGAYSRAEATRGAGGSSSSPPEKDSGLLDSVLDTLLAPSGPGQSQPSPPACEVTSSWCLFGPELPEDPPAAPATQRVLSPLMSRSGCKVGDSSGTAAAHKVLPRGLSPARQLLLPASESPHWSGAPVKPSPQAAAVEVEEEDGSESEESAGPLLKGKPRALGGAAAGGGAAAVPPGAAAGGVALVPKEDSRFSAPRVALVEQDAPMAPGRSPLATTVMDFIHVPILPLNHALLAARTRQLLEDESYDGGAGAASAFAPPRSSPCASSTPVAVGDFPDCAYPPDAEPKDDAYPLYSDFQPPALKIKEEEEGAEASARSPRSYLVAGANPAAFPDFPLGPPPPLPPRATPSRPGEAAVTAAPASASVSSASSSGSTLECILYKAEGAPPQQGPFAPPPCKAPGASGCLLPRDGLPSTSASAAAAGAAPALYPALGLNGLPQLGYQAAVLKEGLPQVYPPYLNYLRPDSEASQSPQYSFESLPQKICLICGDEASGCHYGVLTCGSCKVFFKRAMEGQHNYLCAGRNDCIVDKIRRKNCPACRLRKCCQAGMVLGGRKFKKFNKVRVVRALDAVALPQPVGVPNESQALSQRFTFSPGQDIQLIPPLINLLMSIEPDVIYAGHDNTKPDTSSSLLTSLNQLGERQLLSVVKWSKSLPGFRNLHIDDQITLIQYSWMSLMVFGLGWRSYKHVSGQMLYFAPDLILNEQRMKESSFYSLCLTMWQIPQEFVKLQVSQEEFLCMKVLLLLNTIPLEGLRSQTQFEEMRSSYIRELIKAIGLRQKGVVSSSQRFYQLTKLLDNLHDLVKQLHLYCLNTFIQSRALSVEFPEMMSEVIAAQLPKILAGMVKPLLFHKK
Kind of test: Binding affinity to progesterone receptor.

The target of a further test is T4, Androgen receptor (Homo sapiens, UniProt P10275).
T4 sequence (P10275 whole entry): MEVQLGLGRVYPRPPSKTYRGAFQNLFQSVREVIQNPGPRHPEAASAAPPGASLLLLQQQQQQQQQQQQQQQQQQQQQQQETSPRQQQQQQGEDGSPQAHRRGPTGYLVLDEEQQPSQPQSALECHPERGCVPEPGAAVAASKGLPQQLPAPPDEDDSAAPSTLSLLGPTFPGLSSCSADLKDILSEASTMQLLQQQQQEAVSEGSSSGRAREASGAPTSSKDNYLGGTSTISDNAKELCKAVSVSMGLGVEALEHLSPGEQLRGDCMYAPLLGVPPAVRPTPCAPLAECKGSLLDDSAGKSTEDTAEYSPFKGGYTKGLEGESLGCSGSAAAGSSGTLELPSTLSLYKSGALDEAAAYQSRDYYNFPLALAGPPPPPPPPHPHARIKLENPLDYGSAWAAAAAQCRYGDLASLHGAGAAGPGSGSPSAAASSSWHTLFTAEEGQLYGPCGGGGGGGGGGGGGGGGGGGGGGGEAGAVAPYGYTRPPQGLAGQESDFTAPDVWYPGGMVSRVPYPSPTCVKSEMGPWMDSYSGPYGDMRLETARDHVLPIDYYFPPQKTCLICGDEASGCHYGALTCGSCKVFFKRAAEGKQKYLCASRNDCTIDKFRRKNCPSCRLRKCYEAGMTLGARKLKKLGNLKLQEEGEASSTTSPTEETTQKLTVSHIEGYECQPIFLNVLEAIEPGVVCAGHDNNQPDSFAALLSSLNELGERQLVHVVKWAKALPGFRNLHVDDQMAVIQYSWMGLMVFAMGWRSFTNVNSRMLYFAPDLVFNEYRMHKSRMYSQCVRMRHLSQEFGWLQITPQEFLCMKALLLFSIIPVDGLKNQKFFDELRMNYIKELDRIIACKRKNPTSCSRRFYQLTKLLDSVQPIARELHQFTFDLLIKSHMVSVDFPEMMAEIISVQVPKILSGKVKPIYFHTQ
Kind of test: Binding affinity to androgen receptor.

The target of test [9] is T2, Glucocorticoid receptor. Kind of test: Agonist activity at glucocorticoid receptor in human HepG2 cells co-transfected with GRE assessed as GRE activation by luciferase reporter gene assay. It counts as functional, cell-based.

Molecules are shown by their SMILES.

Regarding `C[C@]12C=CC(=O)C=C1CC[C@@H]1[C@@H]2[C@@H](O)C[C@@]2(C)[C@H]1CC[C@]2(O)C(=O)CO`, the Activity in [1] stood at 129%.
With `CO/N=C1/c2c(cc(F)c(-c3cccc4c(Cl)c[nH]c34)c2F)NC(C)(C)C1O` (stereo not drawn), at Glucocorticoid receptor [2], the Ki turned out to be 0.7 nM. Besides, the 50% inhibitory concentration (IC50) was determined as 14 nM at Glucocorticoid receptor [3] and 22 nM on Glucocorticoid receptor [5]. For the same molecule, the Activity came to 100% in test [4] and 99% in test [6].
On to `C[C@H]1c2c(cc(F)c(-c3cccc4cc[nH]c34)c2F)NC(C)(C)[C@@H]1O`, for which the values for the Activity in [6], in test [1] and in test [8] were 90%, 138% and 75%, respectively. Further, the EC50 at Glucocorticoid receptor [7] worked out at 53 nM.
For the molecule `Cc1c[nH]c2c(-c3c(F)cc4c(c3F)/C(=N/OCc3ccccc3)CC(C)(C)N4)cccc12`, the affinity at Glucocorticoid receptor [2], expressed as Ki, was 5.8 nM. The IC50 on Glucocorticoid receptor [3] worked out at 8.8 nM. Also, the Activity in test [4] was 74%.
In the same order, the values of `CO/N=C1\CC(C)(C)Nc2cc(F)c(-c3cccc4cc[nH]c34)c(F)c21` are 7 nM, 42 nM and 83%.
For the molecule `CCO/N=C1/c2c(cc(F)c(-c3cccc4c(C)c[nH]c34)c2F)NC(C)(C)C1O` (racemic), the inhibition constant (Ki) at Glucocorticoid receptor [2] was 0.6 nM; at Progesterone receptor it was 27 nM; at Androgen receptor, 430 nM. Besides, the IC50 at Glucocorticoid receptor [3] was 2.6 nM; at Glucocorticoid receptor [5], 5.2 nM. Also, the Activity in test [4] turned out to be 98%; in [6], 97%; in [1], 138%; in [8], 61%. The concentration for a half-maximal effect (EC50) at Glucocorticoid receptor [9] came to 1.5 nM; on Glucocorticoid receptor [7], 115 nM.
On to `Cc1c[nH]c2c(-c3c(F)cc4c(c3F)/C(=N/OC(C)(C)C(=O)O)CC(C)(C)N4)cccc12`, for which, on Glucocorticoid receptor [2], the Ki is 2700 nM.
Consider `CCO/N=C1\CC(C)(C)Nc2cc(F)c(-c3cccc4cc[nH]c34)c(F)c21`, for which, at Glucocorticoid receptor [2], the affinity corresponds to a Ki of 0.4 nM. Moreover, at Glucocorticoid receptor [3], the concentration for half-maximal inhibition (IC50) turned out to be 6.9 nM. Further, in test [4], the Activity worked out at 91%.
The like results for `COC(=O)C(C)(C)O/N=C1\CC(C)(C)Nc2cc(F)c(-c3cccc4c(C)c[nH]c34)c(F)c21` were, in that order, 1.5 nM, 22 nM and 87%.
On to `CC1(C)C/C(=N\OC(C)(C)C)c2c(cc(F)c(-c3cccc4cc[nH]c34)c2F)N1`, for which the affinity at Glucocorticoid receptor [2] corresponds to a Ki of 7 nM. In addition, the IC50 was 3.5 nM at Glucocorticoid receptor [3] and 40 nM on Glucocorticoid receptor [5]. Moreover, the Activity turned out to be 93% in test [4] and 57% in [6].
With `CC1(C)C/C(=N\O)c2c(cc(F)c(-c3cccc4cc[nH]c34)c2F)N1`, affinity on Glucocorticoid receptor [2] was put at a Ki of 370 nM.
As to `Cc1c[nH]c2c(-c3c(F)cc4c(c3F)/C(=N/Oc3ccccc3)CC(C)(C)N4)cccc12`, at Glucocorticoid receptor [2], the inhibition constant Ki came out at 31 nM. Moreover, the IC50 on Glucocorticoid receptor [3] was 51 nM. Further, the Activity in test [4] is 67%.

One may read the Ki as a dissociation constant, usually derived from enzyme kinetics or from competition with a known ligand. Usually IC50 stands for the concentration needed to halve the response being measured. What is called EC50 is the concentration needed to bring the measured effect to its halfway point.
